Holding throughout (assay): Enzyme Inhibition Assay
One experiment concerns the target Cathepsin D (Homo sapiens, UniProt P07339). Here is the method:
(§1) Enzyme activity and inhibition were assayed using a fluorescent FAM-[SEVNLDAEFK]-TAMRA substrate. Control reactions with no enzyme were included in each assay. Quantification of substrate cleavage was assessed using an LJL analyst spectrophotometer (485nm excitation, 535nm emission).

The target in the next experiment is Beta-secretase 1 (Homo sapiens, UniProt P56817). The following applies: pH 4.5; 22 °C. Here is the method: as §1
Beta-secretase 1, sequence (P56817 whole entry): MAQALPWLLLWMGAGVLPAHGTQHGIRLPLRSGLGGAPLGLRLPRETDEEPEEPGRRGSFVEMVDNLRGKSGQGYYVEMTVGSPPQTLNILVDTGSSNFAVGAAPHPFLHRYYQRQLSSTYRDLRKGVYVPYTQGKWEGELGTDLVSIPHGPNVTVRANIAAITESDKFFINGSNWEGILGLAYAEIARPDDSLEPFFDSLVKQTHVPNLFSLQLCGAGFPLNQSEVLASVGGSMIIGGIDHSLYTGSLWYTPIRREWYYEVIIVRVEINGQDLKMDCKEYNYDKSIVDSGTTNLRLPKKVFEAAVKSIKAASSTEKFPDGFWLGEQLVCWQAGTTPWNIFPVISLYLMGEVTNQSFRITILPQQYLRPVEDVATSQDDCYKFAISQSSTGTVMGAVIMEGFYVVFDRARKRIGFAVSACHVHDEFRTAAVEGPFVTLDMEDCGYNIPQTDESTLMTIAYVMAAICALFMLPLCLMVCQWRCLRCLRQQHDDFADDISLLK
The next experiment deals with T1, Beta-secretase 2 (Homo sapiens, UniProt Q9Y5Z0).
T1 sequence (Q9Y5Z0 whole entry): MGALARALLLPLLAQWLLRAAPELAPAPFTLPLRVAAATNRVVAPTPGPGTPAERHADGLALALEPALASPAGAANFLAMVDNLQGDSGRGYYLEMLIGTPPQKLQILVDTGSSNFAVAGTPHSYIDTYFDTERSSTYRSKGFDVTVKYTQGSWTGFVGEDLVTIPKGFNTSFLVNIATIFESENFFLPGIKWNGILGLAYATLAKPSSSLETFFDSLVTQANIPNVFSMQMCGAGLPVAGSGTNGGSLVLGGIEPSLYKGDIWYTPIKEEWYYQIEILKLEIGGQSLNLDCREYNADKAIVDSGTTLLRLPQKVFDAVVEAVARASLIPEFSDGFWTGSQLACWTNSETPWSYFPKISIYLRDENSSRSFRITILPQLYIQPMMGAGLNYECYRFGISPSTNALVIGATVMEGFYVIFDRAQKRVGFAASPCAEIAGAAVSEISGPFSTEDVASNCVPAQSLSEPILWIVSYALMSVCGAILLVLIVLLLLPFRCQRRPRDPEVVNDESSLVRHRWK
The following applies: pH 4.5; 22 °C. The protocol: as §1

Molecules are shown by their SMILES.

Cathepsin D, sequence (P07339 65-162 limits assumed): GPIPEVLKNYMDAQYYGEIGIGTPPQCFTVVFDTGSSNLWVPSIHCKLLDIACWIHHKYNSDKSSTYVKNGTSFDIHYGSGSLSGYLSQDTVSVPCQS
Cathepsin D, sequence (P07339 169-412 limits assumed): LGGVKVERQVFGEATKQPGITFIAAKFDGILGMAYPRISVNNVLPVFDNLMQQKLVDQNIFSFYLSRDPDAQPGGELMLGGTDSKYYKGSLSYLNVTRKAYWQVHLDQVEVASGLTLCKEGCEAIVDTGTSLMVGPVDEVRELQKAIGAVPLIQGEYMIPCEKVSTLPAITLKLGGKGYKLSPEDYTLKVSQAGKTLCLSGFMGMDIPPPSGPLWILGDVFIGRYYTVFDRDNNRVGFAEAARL

In the case of `CCNc1cc(C(=O)N[C@@H](Cc2ccccc2)[C@H](O)CNC)cc(N2CCCCS2(=O)=O)c1` [3-(1,1-dioxo-1,2-thiazinan-2-yl)-5-(ethylamino)-N-[(2S,3R)-3-hydroxy-4-(methylamino)-1-phenylbutan-2-yl]benzamide], the values for the IC50 against Cathepsin D and against Beta-secretase 1 were > 100000 nM and 140 nM, respectively.

As to `CCc1cn2c3c(cc(C(=O)N[C@@H](Cc4ccccc4)[C@H](O)CNC4CCCCC4)cc13)N(C)S(=O)(=O)CC2` [BMCL193669 Compound 26], the IC50 (commonly the concentration at which inhibition is half-maximal) at Cathepsin D was 660 nM; at Beta-secretase 2, 210 nM; against Beta-secretase 1 it was 9 nM.

In the case of `CCNc1cc(C(=O)N[C@@H](Cc2ccccc2)[C@H](O)CNC2CCCCC2)cc(N2CCCCS2(=O)=O)c1` [N-[(2S,3R)-4-(cyclohexylamino)-3-hydroxy-1-phenylbutan-2-yl]-3-(1,1-dioxo-1,2-thiazinan-2-yl)-5-(ethylamino)benzamide], the half-inhibitory concentration (IC50) on Cathepsin D amounted to 2340 nM; on Beta-secretase 2, 4370 nM; on Beta-secretase 1, 69 nM.

In the case of `CCNc1cc(C(=O)N[C@@H](Cc2ccccc2)[C@H](O)CNC(C)(C)CCCC(C)C)cc(N2CCCCS2(=O)=O)c1` [N-[(2S,3R)-4-[(2,6-dimethylheptan-2-yl)amino]-3-hydroxy-1-phenylbutan-2-yl]-3-(1,1-dioxo-1,2-thiazinan-2-yl)-5-(ethylamino)benzamide], the half-inhibitory concentration (IC50) came out at 5250 nM on Cathepsin D, 7940 nM on Beta-secretase 2 and 30 nM at Beta-secretase 1.

For `CCc1cn2c3c(cc(C(=O)N[C@@H](Cc4ccccc4)[C@H](O)CNC(C)(C)CCCC(C)C)cc13)N(C)S(=O)(=O)CC2` [N-[(2S,3R)-4-[(2,6-dimethylheptan-2-yl)amino]-3-hydroxy-1-phenylbutan-2-yl]-3-ethyl-9-methyl-10,10-dioxo-10-thia-1,9-diazatricyclo[6.4.1.0^{4,13}]trideca-2,4(13),5,7-tetraene-6-carboxamide], the figures for the IC50 against Cathepsin D, against Beta-secretase 2 and against Beta-secretase 1 were 1000 nM, 114 nM and 5 nM, respectively.

The values are drawn from BindingDB's records for doi:10.1021/jm800138h (Gsk, 2008).
